SMILES strings stand for the structures.

In data set [1] the test system is skin. The experiment in a line: Erythema, skin injury and tanning on skin of patients. Type of data set: in vivo. The note with it: compared with 8-MOP. The source says:
In contrast, it has now been discovered that the mono-functional derivatives of formula I provoke absolutely no erythema, neither immediate nor postponed. No skin injury, neither macro- nor microscopic, was observed on patients. It will be readily apparent to men skilled in the art that this property is a very unique one for compounds of the psoralen family. […] Thus, undesirable cosmetic side effects appear to be absent. Consequently, these compounds are of great interest since, in contrast to 8-MOP, they permit subsequent treatment at short-time intervals for example twice a day over prolonged periods of time without any sun-burnlike injury to the skin.

Data set [2] has as its system skin. The note with it: short treatment intervals; cited from earlier work.
The test system of another data set is lymphocytes. The note with it: therapeutic treatment; cited from earlier work.
The subject of a further data set is mice. As to conditions: hairless mice; cited from earlier work.
A further data set concerns Saccharomyces cerevisiae. As to the kind of experiment: Uptake and removal of the drug in yeast (incubation time, washing). Type of data set: cell-based. As to the method: B--Effects of 365 nm light alone or 3-CPs, uptake and removal of the drug.
Since high doses of 365 nm light are needed to induce a killing effect in Saccharomyces cells in the presence of 3-CPs, the effects of 365 nm light alone were measured for doses up to 7500 J/m^2. It was established that, in the range of doses used for the biological experiments, there was only a small lethal effect of 365 nm light alone. Taking into account the standard errors of the surviving fraction (±10%) and the fact that part of the light energy is absorbed by the drug itself, the effect of 365 nm light alone has been neglected in the experiments.

Data set [3] is described as follows: Light sensitivity of the drug in aqueous solution (chromatography, fluorescence spectra). Type of data set: physicochemical.
Data set [4] deals with skin of homozygote albino mice strain XVII nc/Z. The experiment in a line: Chronic topical application on the ears of mice plus 365 nm UV irradiation (tumors, skin reactions). Type of data set: in vivo. How it is done:
The experiments were effected on groups of 40 mice, male and female.
After 115 topical applications of psoralen, followed each time by 10 minutes of irradiation (cumulative doses of 2.07×10^6 J/m^2), 100% of the animals developed a tumor; 50% having tumors on two ears.
(§1) 3-CPs was also tested intraperitoneally (36 injections of 0.4 mg each over a period of 7 weeks).
In all these experiments the U.V. lamp was of the type of HPW 125 W, manufactured by Philips.

Data set [5] in a line: Intraperitoneal toxicity in mice. Type of data set: in vivo. The note with it: i.p., 36 injections of 0.4 mg over 7 weeks. How it is done: as §1
A further data set concerns psoriasis lesions. As to the kind of experiment: Treatment of psoriasis patients, 1% 3-CPs ointment plus 365 nm UV. Type of data set: in vivo. As to conditions: 1% ointment. How it is done:
The effectiveness of thus-obtained 3-CPs was tested on 10 patients having ordinary psoriasis covering from 200 to 400 cm^2 of skin.
Preparation of 1% 3-CPs ointment:
1 g of 3-CPs was ground to a very fine powder and then dispersed in 70 g of "HYDROCERINE" (a commercially-available product manufactured by ROC) at 70° C. 29 ml of water were added at 70° C. in order to obtain an aqueous emulsion in oil.
The irradiation dose at 365 nm UV was of about 5 J/cm^2 per unit treatment and administered using the usual PUVA therapy set-up.

The test system of a further data set is cutaneous tissue. The note with it: in vivo; cited from earlier work.

Take `COc1c2occc2cc2ccc(=O)oc12` [Example 8-MOP, 8-methoxypsoralen, reference compound]: in the data set on skin [1], the tanning effect result is recorded as “strong tanning effect”. Moreover, the “erythemal reactions in the skin” value in the data set with skin [2] is on record as “can cause violent erythemal reactions in the skin”. In the data set on lymphocytes, the “lymphocytes in circulating blood” value was “causes a decrease of the lymphocytes in circulating blood”. The “cancerogenic power in combination with U.V. radiation” value in the data set on mice was “high cancerogenic power”.
Take `CCOC(=O)c1cc2cc3ccoc3cc2oc1=O` [Example 3-CPs, 3-carboethoxypsoralen]: the “binding in the dark” value in the data set on Saccharomyces cerevisiae is given as “very loosely bound in the dark”. Further, the “effect after one minute incubation” value in the data set on Saccharomyces cerevisiae (10 μg/ml, wild-type and rad9-4) is given as “about the maximum effect”. For the same compound, the “killing and "petite" induction vs incubation time before irradiation” value in the data set on Saccharomyces cerevisiae (10 μg/ml, wild-type and rad9-4, constant 365 nm dose) is “independent of incubation time”. In the data set with Saccharomyces cerevisiae (Saccharomyces), the “uptake and washing out compared with 8-MOP” value is “taken up and washed out as readily as 8-MOP”. For the same compound, the “sensitizing effect after washing” value in the data set with Saccharomyces cerevisiae (doses of 365 nm light used) is reported as “no sensitizing effect after washing”. For the same compound, the light sensitivity result in [3] is “light sensitive”. Further, the photoproduct entry in data set [3] (illuminated aqueous solutions) is “highly fluorescent photoproduct with the characteristics of 4',5'-dihydropsoralen”. Moreover, the “erythema, cutaneous inflammation, tumor” value in data set [4] (115 applications on two ears, 30 minutes rest, 10 minutes irradiation) is given as “neither erythema nor cutaneous inflammation nor any tumor”. Further, the mortality result in data set [4] (115 applications, 450 days of observation) was “No animal died”. Also, the “macroscopic or microscopic reaction” value in data set [4] (450 days of observation) is listed as “Neither macroscopic nor microscopic reaction was observed”. In addition, in [5], the survival entry is “All the animals remained alive”; the “weight and signs of toxicity” value is “without any decrease in weight or other sign of toxicity”. Also, in the data set with psoriasis lesions, the “erythema or cutaneous inflammation” value was “no erythema or cutaneous inflammation” and the “speed of action compared with 8-MOP” value is “slower than that of 8-MOP”. The photosensitizing activity result in the data set on cutaneous tissue is “completely inactive”.
